Data as given in patent publication US20240174618A1, “SUBSTITUTED (2-HETEROARYLOXYPHENYL)SULFONATES, SALTS THEREOF AND THEIR USE AS HERBICIDAL AGENTS” (Bayer Aktiengesellschaft, priority 2021, published 2024).

Experiments:
Assay type in all cases: in vivo
[1] = tested on: Digitaria sanguinalis (DIGSA); assay: A. Herbicidal pre-emergence efficacy, DIGSA; conditions: scored visually after about 3 weeks vs untreated controls
Method in brief: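 Pre-emergence soil-surface spray in sandy loam pots, WP/EC in water plus 0.5% additive, 600 L/ha. Visual % damage rating after about 3 weeks in greenhouse vs. untreated; 0% = control-like, 100% = dead plants. Rates up to 1280 g/ha.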

[2] = tested on: Alopecurus myosuroides (ALOMY); assay: B. Herbicidal post-emergence efficacy, ALOMY; conditions: rated visually after about 3 weeks
Experimental: (§1) Seeds of mono- and dicotyledonous weed plants were placed in plastic pots in sandy loam soil (doubly sown with in each case one species of mono- or dicotyledonous weed plants per pot), covered with soil and cultivated in a greenhouse under controlled growth conditions. 2 to 3 weeks after sowing, the test plants were treated at the one-leaf stage. The compounds of the invention, formulated in the form of wettable powders (WP) or as emulsion concentrates (EC), were applied onto the green parts of the plants as aqueous suspension or emulsion with addition of 0.5% additive at a water application rate of 600 liters per hectare (converted). After the test plants had been kept in the greenhouse under optimum growth conditions for about 3 weeks, the activity of the preparations was rated visually in comparison to untreated controls.
(§2) For example, • 100% efficacy=plants have died, • 0% efficacy=like untreated control plants
(§3) Tables B1a to B12c below show the effects of selected inventive compounds of the general formula (I) according to table 1 on various harmful plants at an application rate corresponding to 1280 g/ha or less, which were obtained by the experimental procedure mentioned above.

Lolium rigidum (LOLRI) = assay: B. Herbicidal post-emergence efficacy, LOLRI
Experimental: as §1, §2, §3

Veronica persica (VERPE) = assay: B. Herbicidal post-emergence efficacy, VERPE
Method in brief: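 Post-emergence greenhouse test: one-leaf-stage plants, compound (WP/EC, +0.5% additive, 600 L/ha water, ≤1280 g/ha) applied to green parts; % efficacy scored visually vs untreated after ~3 wk; 100% = plants died.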

[3] = tested on: Digitaria sanguinalis (DIGSA); assay: E. Herbicidal post-emergence efficacy, DIGSA
Experimental: (§4) Seeds of monocotyledonous and dicotyledonous weeds and crop plants were placed in sandy loam in plastic or organic planting pots, covered with soil and cultivated in a greenhouse under controlled growth conditions. 2 to 3 weeks after sowing, the test plants were treated at the one-leaf stage. The compounds of the invention, formulated in the form of wettable powders (WP) or as emulsion concentrates (EC), were then sprayed onto the green parts of the plants as aqueous suspension or emulsion with addition of 0.5% additive at a water application rate of 600 l/ha (converted). After the test plants had been kept in the greenhouse under optimum growth conditions for about 3 weeks, the activity of the preparations was rated visually in comparison to untreated controls.
(§5) For example, • 100% efficacy=plants have died, • 0% action=like untreated control plants.
(§6) Tables E1a to E12b below show the effects of selected compounds of the general formula (I) according to table 1 on various harmful plants at an application rate corresponding to 320 g/ha or less, which were obtained by the experimental procedure mentioned above.

Zea mays (ZEAMX) = assay: F. Post-emergence effect on useful plants, ZEAMX; conditions: useful plant
Method in brief: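 Crop plants grown in sandy loam in the greenhouse were sprayed at the one-leaf stage, 2-3 weeks after sowing, with WP or EC formulations plus 0.5% additive at 600 l/ha water. Damage was scored visually after about 3 weeks against untreated controls (0% = like control, 100% = dead).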

[4] = tested on: Alopecurus myosuroides (ALOMY); assay: E. Herbicidal post-emergence efficacy, ALOMY
Experimental: as §4, §5, §6

Avena fatua (AVEFA) = assay: C. Herbicidal pre-emergence efficacy, AVEFA; conditions: 320 g/ha, scored after about 3 weeks
Description: (§7) Seeds of monocotyledonous and dicotyledonous weed plants and crop plants were placed in plastic or organic planting pots and covered with soil. The compounds of the invention, formulated in the form of wettable powders (WP) or as emulsion concentrates (EC), were then applied to the surface of the covering soil as aqueous suspension or emulsion with addition of 0.5% additive at a water application rate equivalent to 600 l/ha (converted). After the treatment, the pots were placed in a greenhouse and kept under good growth conditions for the test plants. After about 3 weeks, the efficacy of the preparations was scored visually in comparison with untreated controls as percentages. For example, • 100% efficacy=plants have died, • 0% efficacy=like untreated control plants.
(§8) Tables C1a to C14b below show the effects of selected compounds of the general formula (I) according to table 1 on various harmful plants at an application rate corresponding to 320 g/ha or less, which were obtained by the experimental procedure mentioned above.

[5] = tested on: Pharbitis purpurea (PHBPU); assay: C. Herbicidal pre-emergence efficacy, PHBPU; conditions: scored after about 3 weeks
Description: as §7, §8

Row | Post-emergence efficacy against ZEAMX in % (Zea mays (ZEAMX); application rate 80 g/ha) [%] | Compound | Pre-emergence efficacy against DIGSA ([1]; 320 g/ha) [%] | Pre-emergence efficacy against DIGSA ([1]; 1280 g/ha) [%] | Post-emergence efficacy against ALOMY in % ([2]; 1280 g/ha) [%] | Post-emergence efficacy against LOLRI (Lolium rigidum (LOLRI); 1280 g/ha) [%] | Post-emergence efficacy against VERPE (Veronica persica (VERPE); 80 g/ha) [%] | Post-emergence efficacy against VERPE (Veronica persica (VERPE); 320 g/ha) [%] | Post-emergence efficacy against VERPE (Veronica persica (VERPE); 1280 g/ha) [%] | Post-emergence efficacy against DIGSA in % ([3]; application rate 320 g/ha) [%] | Post-emergence efficacy against ALOMY in % ([4]; application rate 320 g/ha) [%] | Post-emergence efficacy against LOLRI (Lolium rigidum (LOLRI); 320 g/ha) [%] | Pre-emergence efficacy against AVEFA (Avena fatua (AVEFA)) [%] | Pre-emergence efficacy against PHBPU ([5]; 80 g/ha) [%] | Pre-emergence efficacy against PHBPU ([5]; 320 g/ha) [%] | Post-emergence efficacy against ALOMY in % ([4]; application rate 80 g/ha) [%] | Post-emergence efficacy against DIGSA in % ([3]; application rate 80 g/ha) [%] | Pre-emergence efficacy against DIGSA ([1]; 80 g/ha) [%] | Post-emergence efficacy against ZEAMX in % (Zea mays (ZEAMX); application rate 320 g/ha) [%] | Post-emergence efficacy against ALOMY in % ([2]; 320 g/ha) [%]
1 | 20 | O=S(=O)(CCC(F)(F)F)Oc1c(Cl)cccc1Oc1ncc(Br)cn1 [Example I-32] | 90 | 90 | 90 | 90 | 100 | 100 | 100 | 90 |  |  |  |  |  |  |  |  |  | 
2 |  | O=S(=O)(CCC(F)(F)F)Oc1c(Cl)cccc1Oc1ncc(Cl)cn1 [Example I-38] | 100 | 100 |  | 90 | 90 | 90 | 90 | 90 | 80 |  |  |  |  |  |  |  |  | 
3 |  | O=S(=O)(CCCC(F)(F)F)Oc1ccccc1Oc1ncc(Cl)cn1 [Example I-10] |  |  |  | 100 |  |  |  | 90 | 100 | 90 | 90 | 100 | 100 | 90 | 90 |  |  | 
4 |  | O=S(=O)(CCC(F)(F)F)Oc1c(F)cccc1Oc1ncc(Br)cn1 [Example I-40] | 100 | 100 |  |  | 90 | 90 | 90 | 100 | 90 |  | 100 |  | 100 |  | 80 | 100 |  | 
5 |  | CCCCS(=O)(=O)Oc1ccccc1Oc1ncc(Cl)cn1 [Example I-6] |  |  |  |  |  | 90 | 90 | 100 | 90 |  | 80 |  | 80 |  | 80 |  |  | 
6 | 20 | O=S(=O)(CCCC(F)F)Oc1c(F)cccc1Oc1ncc(Cl)cn1 [Example I-56] | 100 | 100 |  |  | 90 | 90 | 90 | 100 | 80 |  | 80 | 100 | 100 |  |  | 100 |  | 
7 |  | O=S(=O)(CCCCl)Oc1ccccc1Oc1ncc(F)cn1 [Example I-5] |  |  | 100 |  | 100 | 100 | 100 |  | 90 |  | 80 |  | 80 | 80 |  |  |  | 
8 |  | O=S(=O)(CCC(F)(F)F)Oc1ccccc1Oc1ncc(Cl)cn1 [Example I-8] |  |  |  | 90 |  |  | 90 | 90 | 90 |  | 90 |  | 80 |  | 80 |  |  | 
9 | 20 | O=S(=O)(CC1CC1)Oc1ccccc1Oc1ncc(Cl)cn1 [Example I-23] | 100 | 100 | 90 |  | 90 | 100 | 100 | 100 | 80 |  | 90 |  | 80 |  |  | 90 |  | 90
10 |  | O=S(=O)(CCC(F)(F)F)Oc1c(F)cccc1Oc1ncc(F)cn1 [Example I-47] | 100 | 100 | 100 |  |  |  |  |  | 100 |  | 100 | 90 | 100 |  |  | 100 |  | 90
11 |  | CC(C)CS(=O)(=O)Oc1ccccc1Oc1ncc(Cl)cn1 [Example I-7, [2-(5-Chloropyrimidin-2-yl)oxyphenyl] 2-methylpropane-1-sulfonate] |  |  |  |  |  |  |  | 100 | 90 |  | 90 |  |  |  | 90 |  |  | 
12 | 20 | O=S(=O)(CCC(F)=C(F)F)Oc1c(Cl)cccc1Oc1ncc(Cl)cn1 [Example I-73] | 90 | 100 | 90 | 90 | 100 | 100 | 100 |  |  |  |  |  |  |  |  |  |  | 
13 |  | O=S(=O)(CCCC(F)(F)F)Oc1c(F)cccc1Oc1ncc(Cl)cn1 [Example I-49] | 90 | 90 | 90 | 90 |  |  | 90 | 100 | 80 |  |  | 90 | 100 |  | 90 | 90 |  | 
14 |  | O=S(=O)(CCCCl)Oc1c(F)cccc1Oc1ncc(Cl)cn1 [Example I-14] | 100 | 100 | 100 | 100 | 100 | 100 | 100 |  | 90 |  | 80 |  |  |  |  | 100 |  | 100
15 |  | O=S(=O)(CCCC(F)(F)F)Oc1c(F)cccc1Oc1ncc(F)cn1 [Example I-42] | 100 | 100 | 100 |  |  |  |  | 90 | 100 |  | 100 | 100 | 100 | 90 | 90 | 100 |  | 100

Row | Compound | Post-emergence efficacy against ZEAMX in % (Zea mays (ZEAMX); application rate 80 g/ha) [%] | Pre-emergence efficacy against DIGSA ([1]; 320 g/ha) [%] | Pre-emergence efficacy against DIGSA ([1]; 1280 g/ha) [%] | Post-emergence efficacy against ALOMY in % ([2]; 1280 g/ha) [%] | Post-emergence efficacy against LOLRI (Lolium rigidum (LOLRI); 1280 g/ha) [%] | Post-emergence efficacy against VERPE (Veronica persica (VERPE); 80 g/ha) [%] | Post-emergence efficacy against VERPE (Veronica persica (VERPE); 320 g/ha) [%] | Post-emergence efficacy against VERPE (Veronica persica (VERPE); 1280 g/ha) [%] | Post-emergence efficacy against DIGSA in % ([3]; application rate 320 g/ha) [%] | Post-emergence efficacy against ALOMY in % ([4]; application rate 320 g/ha) [%] | Post-emergence efficacy against LOLRI (Lolium rigidum (LOLRI); 320 g/ha) [%] | Pre-emergence efficacy against AVEFA (Avena fatua (AVEFA)) [%] | Pre-emergence efficacy against PHBPU ([5]; 80 g/ha) [%] | Pre-emergence efficacy against PHBPU ([5]; 320 g/ha) [%] | Post-emergence efficacy against ALOMY in % ([4]; application rate 80 g/ha) [%] | Post-emergence efficacy against DIGSA in % ([3]; application rate 80 g/ha) [%] | Pre-emergence efficacy against DIGSA ([1]; 80 g/ha) [%] | Post-emergence efficacy against ZEAMX in % (Zea mays (ZEAMX); application rate 320 g/ha) [%] | Post-emergence efficacy against ALOMY in % ([2]; 320 g/ha) [%]
16 | O=S(=O)(CCCC(F)(F)F)Oc1c(F)cccc1Oc1ncc(Br)cn1 [Example I-41] | 0 | 100 | 100 | 90 | 90 | 90 | 90 | 90 | 100 | 100 |  |  | 80 | 100 |  | 100 | 100 | 20 | 
